Assay results: patent US6573218B1, “Fused-benzene derivatives useful as herbicides” (Ishihara Sangyo Kaisha, Ltd., priority 1998, dated 2003)

How the values were obtained:
Assay type in all cases: in vivo
[1] = system: barnyardgrass (Echinochloa crus-galli, ECHCG); test: Pre-emerge greenhouse herbicide test; details: 14 days after application, scale 0-100 (0 no damage, 100 complete death)
Source text: (§1) A standard greenhouse herbicide activity screening system was used to evaluate the herbicidal efficacy and crop safety of these test compounds. Seven broadleaf weed species including redroot pigweed (Amaranthus retroflexus, AMARE), velvetleaf (Abutilon theophrasti, ABUTH), sicklepod (Cassia obtusifolia, CASOB), ivyleaf morningglory (Ipomoea hederacea, IPOHE), lambsquarters (Chenopodium album, CHEAL), common ragweed (Ambrosia artemisiifolia L., AMBEL), and cocklebur (Xanthium strumarium, XANST) were used as test species. Four grass weed species including green foxtail (Setaria viridis, SETVI), barnyardgrass (Echinochloa crus-galli, ECHCG), johnsongrass (Sorghum halepense, SORHA), and large crabgrass (Digitaria sanguinalis, DIGSA) were also used. In addition, three crop species, field corn (Zea mays L., var. Dekalb 527, CORN), soybean (Glycine max L., var. Pella 86, SOY), and upland rice (Ory0a sp., var.Tebonnet, RICE) were included.
(§2) All plants were grown in 10 cm square plastic pots which were filled with a sandy loam soil mix. For pre-emerge tests, seeds were planted one day prior to application of the test compounds. For post-emerge tests, seeds were planted 8-21 days prior to the test to allow emergence and good foliage development prior to application of the test substances. At the time of the post-emerge application, plants of all species were usually at the 2-3 leaf stage of development.
(§3) All test compounds were dissolved in acetone and applied to the test units in a volume of 187 l/ha. Test materials were applied at rates ranging from 15 g ai/ha to 1000 g ai/ha using a track sprayer equipped with a TJ8001E even flow flat fan spray nozzle. Plants were arranged on a shelf so that the top of the canopy (post-emerge) or top of the soil surface (pre-emerge) was 40-45 cm below the nozzle. Pressurized air was used to force the test solution through the nozzle as it was mechanically advanced over the top of all test plants/pots. This application simulates a typical commercial field herbicide application.
(§4) In the post-emerge test, a commercial non-ionic surfactant was also included (0.25% v/v) to enhance wetting of the leaf surfaces of target plants. Immediately after application, test units of the pre-emerge applications were watered at the soil surface to incorporate the test materials.
(§5) At 14 days after application of the test materials, phytotoxicity ratings were recorded. A rating scale of 0-100 was used as previously described in Research Methods in Weed Science, 2nd edition, B. Truelove, Ed., Southern Weed Science Society, Auburn University, Auburn, Ala., 1977. Briefly, “0” corresponds to no damage and “100” corresponds to complete death of all plants in the test unit. This scale was used both to determine efficacy against weed species and damage to crop species. Herbicide activity data for various compounds of this invention, which are shown by compound No. in Tables 1-14, are shown in Tables 16 and 17.

[2] = system: green foxtail (Setaria viridis, SETVI); test: Pre-emerge greenhouse herbicide test; details: 14 days after application, scale 0-100 (0 no damage, 100 complete death)
Source text: as §1, §2, §3, §4, §5

[3] = system: ivyleaf morningglory (Ipomoea hederacea, IPOHE); test: Pre-emerge greenhouse herbicide test; details: 14 days after application, scale 0-100 (0 no damage, 100 complete death)
Source text: as §1, §2, §3, §4, §5

[4] = system: johnsongrass (Sorghum halepense, SORHA); test: Pre-emerge greenhouse herbicide test; details: 250 g ai/ha, 14 days after application, scale 0-100 (0 no damage, 100 complete death)
Source text: as §1, §2, §3, §4, §5

[5] = system: lambsquarters (Chenopodium album, CHEAL); test: Pre-emerge greenhouse herbicide test; details: 14 days after application, scale 0-100 (0 no damage, 100 complete death)
Source text: as §1, §2, §3, §4, §5

[6] = system: large crabgrass (Digitaria sanguinalis, DIGSA); test: Pre-emerge greenhouse herbicide test; details: 14 days after application, scale 0-100 (0 no damage, 100 complete death)
Source text: as §1, §2, §3, §4, §5

[7] = system: redroot pigweed (Amaranthus retroflexus, AMARE); test: Pre-emerge greenhouse herbicide test; details: 14 days after application, scale 0-100 (0 no damage, 100 complete death)
Source text: as §1, §2, §3, §4, §5

[8] = system: sicklepod (Cassia obtusifolia, CASOB); test: Pre-emerge greenhouse herbicide test; details: 14 days after application, scale 0-100 (0 no damage, 100 complete death)
Source text: as §1, §2, §3, §4, §5

[9] = system: velvetleaf (Abutilon theophrasti, ABUTH); test: Pre-emerge greenhouse herbicide test; details: 14 days after application, scale 0-100 (0 no damage, 100 complete death)
Source text: as §1, §2, §3, §4, §5

[10] = system: field corn (Zea mays L., var. Dekalb 527, CORN); test: Pre-emerge greenhouse crop damage test
Source text: as §1, §2, §3, §4, §5

[11] = system: soybean (Glycine max L., var. Pella 86, SOY); test: Pre-emerge greenhouse crop damage test
Source text: as §1, §2, §3, §4, §5

[12] = system: upland rice (Ory0a sp., var.Tebonnet, RICE); test: Pre-emerge greenhouse crop damage test
Source text: as §1, §2, §3, §4, §5

[13] = system: barnyardgrass (Echinochloa crus-galli, ECHCG); test: Post-emerge greenhouse herbicide test; details: 14 days after application
Source text: as §1, §2, §3, §4, §5

[14] = system: green foxtail (Setaria viridis, SETVI); test: Post-emerge greenhouse herbicide test; details: 14 days after application
Source text: as §1, §2, §3, §4, §5

[15] = system: ivyleaf morningglory (Ipomoea hederacea, IPOHE); test: Post-emerge greenhouse herbicide test; details: 14 days after application
Source text: as §1, §2, §3, §4, §5

[16] = system: lambsquarters (Chenopodium album, CHEAL); test: Post-emerge greenhouse herbicide test; details: 14 days after application
Source text: as §1, §2, §3, §4, §5

[17] = system: large crabgrass (Digitaria sanguinalis, DIGSA); test: Post-emerge greenhouse herbicide test; details: 14 days after application
Source text: as §1, §2, §3, §4, §5

[18] = system: redroot pigweed (Amaranthus retroflexus, AMARE); test: Post-emerge greenhouse herbicide test; details: 14 days after application
Source text: as §1, §2, §3, §4, §5

[19] = system: sicklepod (Cassia obtusifolia, CASOB); test: Post-emerge greenhouse herbicide test; details: 14 days after application
Source text: as §1, §2, §3, §4, §5

[20] = system: velvetleaf (Abutilon theophrasti, ABUTH); test: Post-emerge greenhouse herbicide test; details: 14 days after application
Source text: as §1, §2, §3, §4, §5

[21] = system: field corn (Zea mays L., var. Dekalb 527, CORN); test: Post-emerge greenhouse crop damage test
Source text: as §1, §2, §3, §4, §5

[22] = system: soybean (Glycine max L., var. Pella 86, SOY); test: Post-emerge greenhouse crop damage test
Source text: as §1, §2, §3, §4, §5

[23] = system: upland rice (Ory0a sp., var.Tebonnet, RICE); test: Post-emerge greenhouse crop damage test
Source text: as §1, §2, §3, §4, §5

[24] = system: johnsongrass (Sorghum halepense, SORHA); test: Post-emerge greenhouse herbicide test; details: 250 g ai/ha, 14 days after application
Source text: as §1, §2, §3, §4, §5

[25] = pre-emerge, 250 g ai/ha, 14 days after application, scale 0-100 (0 no damage, 100 complete death)
[26] = 250 g ai/ha, post-emerge, 14 days after application
[27] = var. Dekalb 527, field corn (Zea mays L.), in vivo, 14 days
[28] = var. Pella 86, soybean (Glycine max L.), in vivo, 14 days
[29] = var. Tebonnet, upland rice (Ory0a sp.), in vivo, 14 days

Nn1c(C(F)(F)F)cc(=O)n(-c2c(F)cc(Cl)c3c2NC(=O)CO3)c1=O [Compound 4-2]
70: Pre-emerge Herbicidal Activity DIGSA (phytotoxicity rating) ([6]; 250 g ai/ha)
90: Pre-emerge Herbicidal Activity RICE (crop damage rating) ([12]; in vivo) | Post-emerge Herbicidal Activity CASOB (phytotoxicity rating 0-100) ([19]; 250 g ai/ha) | Post-emerge crop damage CORN (phytotoxicity rating 0-100) [21, 26] | Post-emerge crop damage RICE (phytotoxicity rating 0-100) [23, 26]
80: Pre-emerge Herbicidal Activity ECHCG (phytotoxicity rating) ([1]; 250 g ai/ha) | Pre-emerge Herbicidal Activity SETVI (phytotoxicity rating) ([2]; 250 g ai/ha)
20: Post-emerge Herbicidal Activity DIGSA (phytotoxicity rating 0-100) ([17]; 250 g ai/ha)
95: Pre-emerge Herbicidal Activity SOY (crop damage rating) [11, 25]
40: Post-emerge Herbicidal Activity SETVI (phytotoxicity rating 0-100) ([14]; 250 g ai/ha)
100: Pre-emerge Herbicidal Activity IPOHE (phytotoxicity rating) ([3]; 250 g ai/ha) | Pre-emerge Herbicidal Activity CHEAL (phytotoxicity rating) ([5]; 250 g ai/ha) | Pre-emerge Herbicidal Activity AMARE (phytotoxicity rating) ([7]; 250 g ai/ha) | Pre-emerge Herbicidal Activity CASOB (phytotoxicity rating) ([8]; 250 g ai/ha) | Pre-emerge Herbicidal Activity ABUTH (phytotoxicity rating) ([9]; 250 g ai/ha) | Pre-emerge Herbicidal Activity CORN (crop damage rating) [10, 25] | Post-emerge Herbicidal Activity IPOHE (phytotoxicity rating 0-100) ([15]; 250 g ai/ha) | Post-emerge Herbicidal Activity CHEAL (phytotoxicity rating 0-100) ([16]; 250 g ai/ha) | Post-emerge Herbicidal Activity AMARE (phytotoxicity rating 0-100) ([18]; 250 g ai/ha) | Post-emerge Herbicidal Activity ABUTH (phytotoxicity rating 0-100) ([20]; 250 g ai/ha) | Post-emerge crop damage SOY (phytotoxicity rating 0-100) [22, 26]
60: Post-emerge Herbicidal Activity ECHCG (phytotoxicity rating 0-100) ([13]; 250 g ai/ha)
65: Pre-emerge Herbicidal Activity SORHA (phytotoxicity rating) [4]

Cn1c(C(F)(F)F)cc(=O)n(-c2ccc(Cl)c3ccccc23)c1=O [Compound 5-1, 3-(4-Chloronaphthalen-1-yl)-1-methyl-6-trifluoromethyl-2,4(1H,3H)-pyrimidindione]
100: Pre-emerge Herbicidal Activity SETVI (phytotoxicity rating) ([2]; 500 g ai/ha) | Pre-emerge Herbicidal Activity CHEAL (phytotoxicity rating) ([5]; 500 g ai/ha) | Pre-emerge Herbicidal Activity AMARE (phytotoxicity rating) ([7]; 500 g ai/ha) | Pre-emerge Herbicidal Activity ABUTH (phytotoxicity rating) ([9]; 500 g ai/ha) | Post-emerge Herbicidal Activity SETVI (phytotoxicity rating 0-100) ([14]; 500 g ai/ha) | Post-emerge Herbicidal Activity CHEAL (phytotoxicity rating 0-100) ([16]; 500 g ai/ha) | Post-emerge Herbicidal Activity AMARE (phytotoxicity rating 0-100) ([18]; 500 g ai/ha) | Post-emerge Herbicidal Activity ABUTH (phytotoxicity rating 0-100) ([20]; 500 g ai/ha)
98: Pre-emerge Herbicidal Activity DIGSA (phytotoxicity rating) ([6]; 500 g ai/ha)
60: Pre-emerge Herbicidal Activity ECHCG (phytotoxicity rating) ([1]; 500 g ai/ha) | Pre-emerge Herbicidal Activity IPOHE (phytotoxicity rating) ([3]; 500 g ai/ha) | Pre-emerge Herbicidal Activity CASOB (phytotoxicity rating) ([8]; 500 g ai/ha) | Post-emerge Herbicidal Activity IPOHE (phytotoxicity rating 0-100) ([15]; 500 g ai/ha) | Post-emerge Herbicidal Activity DIGSA (phytotoxicity rating 0-100) ([17]; 500 g ai/ha) | Post-emerge Herbicidal Activity CASOB (phytotoxicity rating 0-100) ([19]; 500 g ai/ha)
0: Post-emerge crop damage CORN (phytotoxicity rating 0-100) [21, 27] | Post-emerge crop damage SOY (phytotoxicity rating 0-100) [22, 28] | Post-emerge crop damage RICE (phytotoxicity rating 0-100) [23, 29]
70: Pre-emerge Herbicidal Activity CORN (crop damage rating) [10, 27] | Pre-emerge Herbicidal Activity SOY (crop damage rating) [11, 28] | Pre-emerge Herbicidal Activity RICE (crop damage rating) [12, 29] | Post-emerge Herbicidal Activity ECHCG (phytotoxicity rating 0-100) ([13]; 500 g ai/ha)

CCc1nc2c(N3C(=O)C4CCCCN4C3=S)c(F)cc(Cl)c2o1 (single isomer, unassigned) [Compound 7-5, 8-(7-Chloro-2-ethyl-5-fluorobenzoxazol-4-yl)-1,8-diazobicyclo[4,3,0]nonane-7-one-9-thione]
100: Post-emerge Herbicidal Activity IPOHE (phytotoxicity rating 0-100) ([15]; 250 g ai/ha) | Post-emerge Herbicidal Activity CHEAL (phytotoxicity rating 0-100) ([16]; 250 g ai/ha) | Post-emerge Herbicidal Activity AMARE (phytotoxicity rating 0-100) ([18]; 250 g ai/ha) | Post-emerge Herbicidal Activity CASOB (phytotoxicity rating 0-100) ([19]; 250 g ai/ha) | Post-emerge Herbicidal Activity ABUTH (phytotoxicity rating 0-100) ([20]; 250 g ai/ha)
0: Pre-emerge Herbicidal Activity ECHCG (phytotoxicity rating) ([1]; 250 g ai/ha) | Pre-emerge Herbicidal Activity SETVI (phytotoxicity rating) ([2]; 250 g ai/ha) | Pre-emerge Herbicidal Activity IPOHE (phytotoxicity rating) ([3]; 250 g ai/ha) | Pre-emerge Herbicidal Activity DIGSA (phytotoxicity rating) ([6]; 250 g ai/ha) | Pre-emerge Herbicidal Activity CASOB (phytotoxicity rating) ([8]; 250 g ai/ha) | Pre-emerge Herbicidal Activity CORN (crop damage rating) [10, 25] | Pre-emerge Herbicidal Activity SOY (crop damage rating) [11, 25] | Pre-emerge Herbicidal Activity RICE (crop damage rating) [12, 25] | Post-emerge Herbicidal Activity ECHCG (phytotoxicity rating 0-100) ([13]; 250 g ai/ha) | Post-emerge Herbicidal Activity SORHA (phytotoxicity rating 0-100) [24]
30: Pre-emerge Herbicidal Activity ABUTH (phytotoxicity rating) ([9]; 250 g ai/ha)
50: Pre-emerge Herbicidal Activity AMARE (phytotoxicity rating) ([7]; 250 g ai/ha)
10: Post-emerge Herbicidal Activity DIGSA (phytotoxicity rating 0-100) ([17]; 250 g ai/ha) | Post-emerge crop damage RICE (phytotoxicity rating 0-100) [23, 26]
60: Pre-emerge Herbicidal Activity CHEAL (phytotoxicity rating) ([5]; 250 g ai/ha) | Post-emerge Herbicidal Activity SETVI (phytotoxicity rating 0-100) ([14]; 250 g ai/ha)
20: Post-emerge crop damage CORN (phytotoxicity rating 0-100) [21, 26]
80: Post-emerge crop damage SOY (phytotoxicity rating 0-100) ([22]; in vivo)
